These results are taken from US20240174603A1 (Rappta Therapeutics Oy, priority 2021, published 2024).

One test deals with LNCaP cells. Description: LNCaP cell viability assay (MTS). The class given is cell-based. Conditions: Homo sapiens, LNCaP cell line, 48 hours. The method, boiled down: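 GI50 derived by nonlinear four-parameter curve fitting (bottom fixed at zero) of MTS viability data. Prostate LNCaP cells seeded at 5000/well were given compound doses from 1 to 80 µM one day after plating and assayed after 48 h of exposure.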
As for `CN(C)CC(NS(=O)(=O)c1ccc(OC2CC2)cc1)c1ccc(Cl)c(Cl)c1` (stereo not drawn) [Compound 154, 4-cyclopropoxy-N-(1-(3,4-dichlorophenyl)-2-(dimethylamino)ethyl)benzenesulfonamide], halving of growth (GI50) required 53.8 µM. In other words, the double-digit micromolar range.

Consider `CN(C)CC(NS(=O)(=O)c1ccc(OC(F)(F)F)nc1)c1ccc(Cl)c(Cl)c1` (stereo not drawn) [Compound 157, N-(1-(3,4-dichlorophenyl)-2-(dimethylamino)ethyl)-6-(trifluoromethoxy)pyridine-3-sulfonamide], for which it took 17.7 µM to inhibit growth by half (GI50). On the same count and under the same terms, next, `O=S(=O)(NC(CN1CCCC1)c1ccc(Cl)cc1)c1ccc(OC(F)(F)F)cc1` (stereo not drawn) [Compound 181, N-(1-(4-chlorophenyl)-2-(pyrrolidin-1-yl)ethyl)-4-(trifluoromethoxy)benzenesulfonamide]: 51.4 µM; `O=S(=O)(NC(CN1CCCCC1)c1ccc(Cl)cc1)c1ccc(OC(F)(F)F)cc1` (stereo not drawn) [Compound 183, N-(1-(4-chlorophenyl)-2-(piperidin-1-yl)ethyl)-4-(trifluoromethoxy)benzenesulfonamide]: 33.8 µM.

The test is the same for the next values; noted with them: Homo sapiens, LNCaP, 48 h, LNCaP cell line.
In turn, `CN(C)CC(NS(=O)(=O)c1ccc(OC(F)F)cc1)c1ccc(Cl)c(Cl)c1` (stereo not drawn) [Compound 153, N-(1-(3,4-dichlorophenyl)-2-(dimethylamino)ethyl)-4-(difluoromethoxy)benzenesulfonamide] returned a GI50 of 45.7 µM. That is a double-digit micromolar value. As for `CN(C)CC(NS(=O)(=O)c1ccc(OC(F)(F)F)cc1N)c1ccc(Cl)c(Cl)c1` (stereo not drawn) [Compound 155, 2-amino-N-(1-(3,4-dichlorophenyl)-2-(dimethylamino)ethyl)-4-(trifluoromethoxy)benzenesulfonamide], growth was halved (GI50) at 21.3 µM.

The molecule `CN(C)CC(NS(=O)(=O)c1ccc2c(c1)OC(F)(F)O2)c1ccc(Cl)c(Cl)c1` (stereo not drawn) [Compound 156, N-(1-(3,4-dichlorophenyl)-2-(dimethylamino)ethyl)-2,2-difluorobenzo[d][1,3]dioxole-5-sulfonamide] yielded a GI50 of 24.9 µM. `CN(C)CC(NS(=O)(=O)c1ccc(Cl)cc1F)c1ccc(Cl)c(Cl)c1` (stereo not drawn) [Compound 160, 4-chloro-N-(1-(3,4-dichlorophenyl)-2-(dimethylamino)ethyl)-2-fluorobenzenesulfonamide]: the GI50 stood at 58.5 µM. Compared with the last molecule, the GI50 is about 2.3-fold higher. As to `CN(C)CC(NS(=O)(=O)c1ccc(C(F)(F)F)cc1)c1ccc(Cl)c(Cl)c1` (stereo not drawn) [Compound 161, N-(1-(3,4-dichlorophenyl)-2-(dimethylamino)ethyl)-4-(trifluoromethyl)benzenesulfonamide], the GI50 stood at 25.4 µM. Against the preceding molecule, the GI50 is about 2.3-fold lower. `CN(C)CC(NS(=O)(=O)c1cccc(C(F)(F)F)c1)c1ccc(Cl)c(Cl)c1` (stereo not drawn) [Compound 162, N-(1-(3,4-dichlorophenyl)-2-(dimethylamino)ethyl)-3-(trifluoromethyl)benzenesulfonamide] showed a GI50 of 52.7 µM.

For the molecule `CN(C)CC(NS(=O)(=O)c1cccc(Cl)c1)c1ccc(Cl)c(Cl)c1` (stereo not drawn) [Compound 163, 3-chloro-N-(1-(3,4-dichlorophenyl)-2-(dimethylamino)ethyl)benzenesulfonamide], the GI50 was found to be 46 µM. Molecule `CN(C)CC(NS(=O)(=O)c1ccc(Cl)cc1)c1ccc(Cl)c(Cl)c1` (stereo not drawn) [Compound 164, 4-chloro-N-(1-(3,4-dichlorophenyl)-2-(dimethylamino)ethyl)benzenesulfonamide] displayed a GI50 of 28.2 µM. Compared with the last molecule, the GI50 is about 1.6-fold lower. `CN(C)CC(NS(=O)(=O)c1ccc(OC(F)(F)F)cc1)c1cccc(Cl)c1` (stereo not drawn) [Compound 166, N-(1-(3-chlorophenyl)-2-(dimethylamino)ethyl)-4-(trifluoromethoxy)benzenesulfonamide] gave a GI50 of 44.5 µM. This GI50 is about 1.6-fold higher than that of the molecule before. Molecule `CN(C)CC(NS(=O)(=O)c1ccc(OC(F)(F)F)cc1)c1ccc(F)c(Cl)c1` (stereo not drawn) [Compound 167, N-(1-(3-chloro-4-fluorophenyl)-2-(dimethylamino)ethyl)-4-(trifluoromethoxy)benzenesulfonamide] registered a GI50 of 42.4 µM. The GI50 values of the last two molecules are within 1.5-fold of each other. On the same count and under the same terms, next, `CN(C)CC(NS(=O)(=O)c1ccc(OC(F)(F)F)cc1)c1ccc(Cl)c(F)c1` (stereo not drawn) [Compound 168, N-(1-(4-chloro-3-fluorophenyl)-2-(dimethylamino)ethyl)-4-(trifluoromethoxy)benzenesulfonamide]: 24.7 µM; `O=S(=O)(NC(CN1CCOCC1)c1ccc(Cl)c(Cl)c1)c1ccc(OC(F)(F)F)cc1` (stereo not drawn) [Compound 169, N-(1-(3,4-dichlorophenyl)-2-morpholinoethyl)-4-(trifluoromethoxy)benzenesulfonamide]: 53.7 µM. `CN(C)CC(NS(=O)(=O)/C=C/c1ccccc1)c1ccc(Cl)c(Cl)c1` (stereo not drawn) [Compound 174, (E)-N-(1-(3,4-dichlorophenyl)-2-(dimethylamino)ethyl)-2-phenylethene-1-sulfonamide] came in with a GI50 of 30.9 µM. `CN(C)CC(NS(=O)(=O)c1ccc(OC(F)(F)F)c([N+](=O)[O-])c1)c1ccc(Cl)c(Cl)c1` (stereo not drawn) [Compound 175, N-(1-(3,4-dichlorophenyl)-2-(dimethylamino)ethyl)-3-nitro-4-(trifluoromethoxy)benzenesulfonamide]: the GI50 came out at 3.23 µM. With `CN(C)CC(NS(=O)(=O)c1ccc(OC(F)(F)F)c(N)c1)c1ccc(Cl)c(Cl)c1` (stereo not drawn) [Compound 176, 3-amino-N-(1-(3,4-dichlorophenyl)-2-(dimethylamino)ethyl)-4-(trifluoromethoxy)benzenesulfonamide], growth was halved (GI50) at 31.4 µM. `O=S(=O)(NC(CN1CCCC1)c1ccc(Cl)c(Cl)c1)c1ccc(OC(F)(F)F)cc1` (stereo not drawn) [Compound 182, N-(1-(3,4-dichlorophenyl)-2-(pyrrolidin-1-yl)ethyl)-4-(trifluoromethoxy)benzenesulfonamide] had a GI50 of 24.5 µM. This GI50 and that of the molecule before are within 1.5-fold of each other. The molecule `CN1CCN(CC(NS(=O)(=O)c2ccc(OC(F)(F)F)cc2)c2ccc(Cl)cc2)CC1` (stereo not drawn) [Compound 184, N-(1-(4-chlorophenyl)-2-(4-methylpiperazin-1-yl)ethyl)-4-(trifluoromethoxy)benzenesulfonamide] came in with a GI50 of 23.4 µM. This GI50 and that of the molecule before are within 1.5-fold of each other. The same measure, in the same setting: next, `CN1CCN(CC(NS(=O)(=O)c2ccc(OC(F)(F)F)cc2)c2ccc(Cl)c(Cl)c2)CC1` (stereo not drawn) [Compound 185, N-(1-(3,4-dichlorophenyl)-2-(4-methylpiperazin-1-yl)ethyl)-4-(trifluoromethoxy)benzenesulfonamide]: 12.6 µM. In turn, `CN(C)CC(NS(=O)(=O)c1ccc(C(=O)Nc2ccccc2)cc1)c1ccc(Cl)c(Cl)c1` (stereo not drawn) [Compound 186, 4-(N-(1-(3,4-dichlorophenyl)-2-(dimethylamino)ethyl)sulfamoyl)-N-phenylbenzamide] had a GI50 of 48.2 µM. Same read-out and setting: next, `CN(C)CC(NS(=O)(=O)c1ccc(C(=O)NC2CCCCC2)cc1)c1ccc(Cl)c(Cl)c1` (stereo not drawn) [Compound 187, N-cyclohexyl-4-(N-(1-(3,4-dichlorophenyl)-2-(dimethylamino)ethyl)sulfamoyl)benzamide]: 53.6 µM; `CN(C)CC(NS(=O)(=O)c1ccc(Nc2ccccc2)cc1)c1ccc(Cl)c(Cl)c1` (stereo not drawn) [Compound 188, N-(1-(3,4-dichlorophenyl)-2-(dimethylamino)ethyl)-4-(phenylamino)benzenesulfonamide]: 13.6 µM; `CN(C)CC(NS(=O)(=O)c1ccc(Oc2ccccc2)cc1)c1cccc(C(F)(F)F)c1` (stereo not drawn) [Compound 189, N-(2-(dimethylamino)-1-(3-(trifluoromethyl)phenyl)ethyl)-4-phenoxybenzenesulfonamide]: 12.1 µM. In the case of `CN(C)CC(NS(=O)(=O)c1ccc(Oc2ccccc2)cc1)c1ccc(Cl)cc1` (stereo not drawn) [Compound 190, N-(1-(4-chlorophenyl)-2-(dimethylamino)ethyl)-4-phenoxybenzenesulfonamide], the concentration for 50% growth inhibition (GI50) is 11.8 µM.

The molecule `CN(C)CC(NS(=O)(=O)c1ccc(OC(F)(F)F)c(Cl)c1)c1cccc(C(F)(F)F)c1` (stereo not drawn) [Compound 191, 3-chloro-N-(2-(dimethylamino)-1-(3-(trifluoromethyl)phenyl)ethyl)-4-(trifluoromethoxy)benzenesulfonamide] came in with a GI50 of 16.5 µM. This GI50 and that of the molecule before are within 1.5-fold of each other.

`CN(C)CC(NS(=O)(=O)c1ccc(OC(F)(F)F)c(Cl)c1)c1ccc(Cl)cc1` (stereo not drawn) [Compound 192, 3-chloro-N-(1-(4-chlorophenyl)-2-(dimethylamino)ethyl)-4-(trifluoromethoxy)benzenesulfonamide] came in with a GI50 of 14.4 µM. The GI50 values of the last two molecules are within 1.5-fold of each other. In the case of `CN(C)CC(NS(=O)(=O)c1ccc(Oc2ccc(C(F)(F)F)cc2)cc1)c1cccc(C(F)(F)F)c1` (stereo not drawn) [Compound 193, N-(2-(dimethylamino)-1-(3-(trifluoromethyl)phenyl)ethyl)-4-(4-(trifluoromethyl)phenoxy)benzenesulfonamide], the GI50 stood at 19.6 µM. `CN(C)CC(NS(=O)(=O)c1ccc(Oc2ccc(C(F)(F)F)cc2)cc1)c1ccc(Cl)cc1` (stereo not drawn) [Compound 194, N-(1-(4-chlorophenyl)-2-(dimethylamino)ethyl)-4-(4-(trifluoromethyl)phenoxy)benzenesulfonamide]: the GI50 stood at 12.2 µM. `CN(C)CC(NS(=O)(=O)c1ccc(OC(F)(F)F)c([N+](=O)[O-])c1)c1cccc(C(F)(F)F)c1` (stereo not drawn) [Compound 205, N-(2-(dimethylamino)-1-(3-(trifluoromethyl)phenyl)ethyl)-3-nitro-4-(trifluoromethoxy)benzenesulfonamide] gave a GI50 of 2.27 µM.

For the molecule `CN(C)CC(NS(=O)(=O)c1ccc(OC(F)(F)F)c([N+](=O)[O-])c1)c1ccc(Cl)cc1` (stereo not drawn) [Compound 206, N-(1-(4-chlorophenyl)-2-(dimethylamino)ethyl)-3-nitro-4-(trifluoromethoxy)benzenesulfonamide], the concentration for 50% growth inhibition (GI50) worked out at 1.77 µM. On to `CN(C)CC(NS(=O)(=O)c1ccc(OCC2CC2)cc1)c1ccc(Cl)c(Cl)c1` (stereo not drawn) [Compound 207, 4-(cyclopropylmethoxy)-N-(1-(3,4-dichlorophenyl)-2-(dimethylamino)ethyl)benzenesulfonamide], for which the GI50 was found to be 21.8 µM.

The molecule `CC(C)Oc1ccc(S(=O)(=O)NC(CN(C)C)c2ccc(Cl)c(Cl)c2)cc1` (stereo not drawn) [Compound 208, N-(1-(3,4-dichlorophenyl)-2-(dimethylamino)ethyl)-4-isopropoxybenzenesulfonamide] had a GI50 of 25.4 µM. The GI50 values of the last two molecules are within 1.5-fold of each other. The same measure, in the same setting: next, `CN(C)CC(NS(=O)(=O)c1ccc(OC2CCCCC2)cc1)c1ccc(Cl)c(Cl)c1` (stereo not drawn) [Compound 209]: 11.1 µM.
